From the CheMixHub viscosity set
“And” between values parts separate entries of the source, which are not always exact repeats. Identical values can stand only once.

Experiment: xn = mol fraction of the nth substance listed

CCCCCCCCCCCC + CCCCCCCC
Settings	viscosity
298.15 K, 101.33 kPa, x2 = 0.1117	1.233 mPa·s
298.15 K, 101.33 kPa, x2 = 0.2101	1.138 mPa·s
298.15 K, 101.33 kPa, x2 = 0.3025	1.038 mPa·s
298.15 K, 101.33 kPa, x2 = 0.4085	0.9477 mPa·s
298.15 K, 101.33 kPa, x2 = 0.5069	0.8672 mPa·s
298.15 K, 101.33 kPa, x2 = 0.6088	0.7703 mPa·s
298.15 K, 101.33 kPa, x2 = 0.7035	0.71 mPa·s
298.15 K, 101.33 kPa, x2 = 0.804	0.6353 mPa·s
298.15 K, 101.33 kPa, x2 = 0.9048	0.5647 mPa·s
298.2 K, 100 kPa, x2 = 0.5	0.869 mPa·s
323.15 K, 100 kPa, x2 = 0.434	0.658 mPa·s and 0.657 mPa·s
323.15 K, 100 kPa, x2 = 0.743	0.502 mPa·s and 0.501 mPa·s

CCCCCCCCCCO + CCCCCCCC
298.15 K, 101.3 kPa
Settings	viscosity [mPa·s]
x1 = 0.0592	0.601
x1 = 0.11	0.678
x1 = 0.1555	0.769
x1 = 0.2012	0.876
x1 = 0.2553	1.032
x1 = 0.303	1.194
x1 = 0.4085	1.665
x1 = 0.5085	2.311
x1 = 0.6109	3.244
x1 = 0.7126	4.541
x1 = 0.7879	5.827
x1 = 0.8535	7.233
x1 = 0.9129	8.795
x1 = 0.9391	9.583

CCOC(=O)OCC + CCCCCCCC
298.15 K, 101.3 kPa
Settings	viscosity [mPa·s]
x1 = 0.0224	0.517
x1 = 0.0828	0.509
x1 = 0.1137	0.508
x1 = 0.1181	0.508
x1 = 0.1535	0.508
x1 = 0.1753	0.507
x1 = 0.3802	0.529
x1 = 0.4893	0.549
x1 = 0.5834	0.572
x1 = 0.6904	0.6
x1 = 0.8119	0.645
x1 = 0.8465	0.659
x1 = 0.8953	0.681
x1 = 0.9679	0.727

CCCCCCCCCCCC + CCCCCCCCCC
298.15 K, 101.33 kPa
Settings	viscosity [mPa·s]
x2 = 0.1071	1.294
x2 = 0.2012	1.243
x2 = 0.3014	1.198
x2 = 0.4079	1.146
x2 = 0.5077	1.092
x2 = 0.6096	1.036
x2 = 0.7085	0.9801
x2 = 0.8052	0.9488
x2 = 0.9045	0.9028

CCCCCCCCCCO + CCCCCCCCCC
298.15 K, 101.3 kPa
Settings	viscosity [mPa·s]
x1 = 0.0518	0.924
x1 = 0.1069	1.021
x1 = 0.1649	1.168
x1 = 0.2141	1.308
x1 = 0.2591	1.457
x1 = 0.3013	1.618
x1 = 0.4008	2.078
x1 = 0.5047	2.74
x1 = 0.6063	3.619
x1 = 0.6847	4.535
x1 = 0.8044	6.474
x1 = 0.8482	7.392
x1 = 0.8943	8.5
x1 = 0.9494	10.05

CCOC(=O)OCC + CCCCCCCCCCCC
298.15 K, 101.3 kPa
Settings	viscosity [mPa·s]
x1 = 0.0152	1.301
x1 = 0.0779	1.228
x1 = 0.1327	1.18
x1 = 0.1841	1.133
x1 = 0.2993	1.047
x1 = 0.4701	0.942
x1 = 0.6163	0.86
x1 = 0.7539	0.793
x1 = 0.9071	0.745
x2 = 0.014	0.741

CCCCCCCCCCO + CCCCCCCCCCCCCCCC
100 kPa, x2 = 0.0921
Settings	viscosity [mPa·s]
298.2 K	9.77
308.2 K	6.71
318.2 K	4.76

CC(C)[C@@H]1CC[C@@H](C)C[C@H]1O + CCCCCCCCCCO
Settings	viscosity [mPa·s]
298.15 K, 101.33 kPa, x1 = 0.5	21.24

Cc1ccccc1C + CCCCCCCCCCO
viscosity [mPa·s], 101 kPa
Settings	298.15 K	308.15 K
x1 = 0.0766	9.611	6.581
x1 = 0.1331	8.188	5.606
x1 = 0.1823	7.108	4.864
x1 = 0.2509	5.802	3.987
x1 = 0.3173	4.749	3.288
x1 = 0.3896	3.813	2.671
x1 = 0.4556	3.107	2.214
x1 = 0.5261	2.509	1.815
x1 = 0.6054	1.983	1.459
x1 = 0.6597	1.695	1.264
x1 = 0.7364	1.374	1.041
x1 = 0.8029	1.156	0.895
x1 = 0.873	0.977	0.781
x1 = 0.9447	0.84	0.698

CC(C)[C@@H]1CC[C@@H](C)C[C@H]1O + CCCCCCCCCO
Settings	viscosity [mPa·s]
298.15 K, 101.33 kPa, x1 = 0.5	35.03

CC(C)[C@@H]1CC[C@@H](C)C[C@H]1O + CCCCCCCCO
Settings	viscosity [mPa·s]
298.15 K, 101.33 kPa, x1 = 0.5	13.1
